Source: PubChem BioAssay AID2467 (Broad Institute, 2010)
Several values for one entry are separate records, joined by “and”; a condition that tells them apart may be missing. Identical values can stand only once. Records with an inconclusive call do not appear. Activity calls are given as the source filed them. No rule for the calls is given here.

Test system: C. albicans growth with fluconazole, fluorescence
Experiment: C. albicans growth with fluconazole, confirmation, fluorescence, retest (AID 2467)

Row | Structure (SMILES) | EC50
1 | NC(=NCCCCCCN=C(N)/N=C(\N)Nc1ccc(Cl)cc1)/N=C(\N)Nc1ccc(Cl)cc1 | 0.635 µM and 0.308 µM and 0.649 µM
2 | c1cnc2c(c1)ccc1cccnc12 | > 3.8 µM (inactive)
